Several values for one entry are separate records, joined by “and”; a condition that tells them apart may be missing. Equal values may be shown once.
Columns and labels:
TOP2B C88Y = biological target: T1, TOP2B C88Y (Homo sapiens, UniProt Q02880, C93Y); assay: ATPase activity of TOP2B C88Y mutant; type: biochemical; settings: for effect of C88Y mutation in TOP2B on inhibition: vs TOP2B WT
T1 construct: Using recombinant full-length human TOP2A and TOP2B enzymes; YFP (N, cleaved yes); made in house; host or cells: HEK293F
T1 sequence (Q02880 1-1621 isoform Q02880-2 C88Y): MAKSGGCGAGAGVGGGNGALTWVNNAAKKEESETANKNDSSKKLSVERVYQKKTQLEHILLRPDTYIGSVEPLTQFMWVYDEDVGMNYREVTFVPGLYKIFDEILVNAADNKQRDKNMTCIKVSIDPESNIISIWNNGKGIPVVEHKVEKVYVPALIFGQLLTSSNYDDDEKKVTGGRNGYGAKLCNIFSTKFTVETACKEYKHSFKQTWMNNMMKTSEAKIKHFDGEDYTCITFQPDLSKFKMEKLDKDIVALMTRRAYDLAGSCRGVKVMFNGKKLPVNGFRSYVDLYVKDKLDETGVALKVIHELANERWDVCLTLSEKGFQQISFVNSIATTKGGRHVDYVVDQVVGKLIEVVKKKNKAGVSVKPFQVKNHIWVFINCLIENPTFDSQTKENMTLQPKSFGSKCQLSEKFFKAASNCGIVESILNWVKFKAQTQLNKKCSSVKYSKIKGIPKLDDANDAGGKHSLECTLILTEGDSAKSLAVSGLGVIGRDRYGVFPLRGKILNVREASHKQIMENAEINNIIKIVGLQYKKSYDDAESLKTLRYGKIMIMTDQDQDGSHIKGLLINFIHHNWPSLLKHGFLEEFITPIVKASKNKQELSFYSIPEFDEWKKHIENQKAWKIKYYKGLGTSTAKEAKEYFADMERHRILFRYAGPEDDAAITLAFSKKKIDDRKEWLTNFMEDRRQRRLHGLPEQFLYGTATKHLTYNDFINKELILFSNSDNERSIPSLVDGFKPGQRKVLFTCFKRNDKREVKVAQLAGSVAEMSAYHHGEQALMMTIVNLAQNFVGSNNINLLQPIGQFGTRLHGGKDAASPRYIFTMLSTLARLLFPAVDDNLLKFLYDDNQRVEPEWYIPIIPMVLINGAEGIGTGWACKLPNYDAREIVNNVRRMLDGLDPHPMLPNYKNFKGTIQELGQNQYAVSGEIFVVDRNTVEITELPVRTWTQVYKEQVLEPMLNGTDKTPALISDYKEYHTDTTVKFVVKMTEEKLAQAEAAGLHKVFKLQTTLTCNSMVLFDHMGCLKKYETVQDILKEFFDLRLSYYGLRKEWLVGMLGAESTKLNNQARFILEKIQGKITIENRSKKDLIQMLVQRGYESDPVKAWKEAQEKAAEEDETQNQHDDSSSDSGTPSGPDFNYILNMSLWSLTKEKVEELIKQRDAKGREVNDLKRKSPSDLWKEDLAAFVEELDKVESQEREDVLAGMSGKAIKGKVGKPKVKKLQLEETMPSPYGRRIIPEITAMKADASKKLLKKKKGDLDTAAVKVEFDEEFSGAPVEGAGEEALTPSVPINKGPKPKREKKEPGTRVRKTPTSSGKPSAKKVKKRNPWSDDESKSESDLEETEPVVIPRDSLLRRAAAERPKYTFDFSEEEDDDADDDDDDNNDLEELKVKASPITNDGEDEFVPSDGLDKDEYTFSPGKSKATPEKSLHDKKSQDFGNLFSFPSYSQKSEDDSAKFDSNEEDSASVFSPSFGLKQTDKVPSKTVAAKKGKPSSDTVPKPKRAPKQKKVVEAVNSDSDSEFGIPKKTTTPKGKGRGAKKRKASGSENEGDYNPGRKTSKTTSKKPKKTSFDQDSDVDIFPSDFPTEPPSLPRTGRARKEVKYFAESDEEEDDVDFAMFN
Experimental: The human topoisomerase II decatenation assay was performed to determine the inhibitory effects of BNS-22 and new compounds as previously described with minor modifications[14],[36]. The assay was performed using recombinant human TOP2A or TOP2B generated using the HEK293F YFP-tag expression system as previously described[18],[19],[36]. Briefly, plasmids encoding YFP-TOP2A or YFP-TOP2B were transfected into HEK293F cells (Catalog number 11625019, Thermofisher Scientific), and TOP2 proteins were isolated from cell lysates by anti-YFP nanobody affinity chromatography. After elution by TEV protease cleavage, TOP2 proteins were FPLC purified by sequential cation exchange and size exclusion chromatography. Plasmid encoding TOP2B C88Y was generated by round-the-horn PCR mutagenesis and the sequence was verified by full-plasmid sequencing. Purified TOP2 proteins were stored in a storage buffer containing 20 mM HEPES pH 7.5, 500 mM NaCl, 0.5 mM TCEP, 25% (v/v) glycerol at -80 °C. For decatenation assays, purified TOP2 proteins were incubated with 200 ng kDNA (Topogen) in a reaction buffer containing 50 mM Tris−HCl (pH 8), 100 mM NaCl, 10 mM MgCl2, 0.5 mM DTT, 2 mM ATP, 0.1 mM tris(2-carboxyethyl)phosphine (TCEP), 5% (v/v) glycerol, 70 μg/mL bovine serum albumin, and 1/10 volume of each compound diluted in 10% DMSO (final DMSO concentration 1%) for 40 min at 37 °C. The reaction was then stopped by the addition of gel loading buffer (0.5 volumes of 60% (w/v) glycerol, 60 mM EDTA, 20 mM Tris−HCl (pH 7.5), 0.5 mg/mL bromophenol blue) and the samples were placed on ice. Reaction products were resolved by agarose gel electrophoresis in TBE buffer containing GelRed stain (Biotium). Gels were visualized using an iBright CL1000 (Thermofisher Scientific). Band intensities were quantified using FIJI, and the signal of the treated samples was normalized to the value of the control (untreated sample; 100%) present on the same gel. The normalized signal of three independent measurements was then expressed as mean ± SD. Each presented data point was obtained from distinct sample. Normalized values were plotted as a function of inhibitor concentration to determine IC50 values by nonlinear regression with variable slope using Prism 9 (GraphPad).
Topoisomerase proteins were diluted to 500 nM in storage buffer containing 20 mM HEPES pH 7.5, 500 mM NaCl, 0.5 mM TCEP, 25% glycerol, and 0.2 mg/mL BSA prior to use. A coupled assay was used to measure TOP2-catalyzed ATP hydrolysis in vitro[37] in Costar 96-well plates (Corning Incorporated). […] Reaction plates were pre-warmed to 30 °C for 5 min and ATP was added last to initiate the reaction. The reaction plate was placed in a CLARIOstarPlus plate reader (BMG Labtech) to measure NADH fluorescence at 30 °C every 30 s over 120 cycles using a 340-60 excitation filter and a 480-100 emission filter. Background fluorescence signals calculated from wells containing no ATP were subtracted from each measurement. The slope of NADH fluorescence decay in each well was calculated using the MARS software (BMG Labtech) and reaction wells that lacked topoisomerase inhibitor to account for photobleaching of NADH fluorescence served as background subtraction. Each presented data point was obtained from distinct sample. Values were normalized to untreated controls and plotted as a function of inhibitor concentration to determine IC50 values using Prism 9 (GraphPad).

rabbits = assay: Chronic anthracycline cardiotoxicity model in rabbits
Experimental: Thirty-eight rabbits were used for this purpose using the following study design. Chronic cardiotoxicity was induced by DAU (3 mg/kg, i.v., once weekly for 10 weeks, n = 11), while the control group received the same volume of saline (1 ml/kg, n = 9) in the same way. […] Animal survival was monitored daily, while body weight change was recorded weekly. The experiment was scheduled to end a week after the last dosing of the compounds studied.
Cardiac damage induced by DAU was quantified by determination of cardiac troponin T in plasma before the 1st, 5th, 8th and 10th doses and at the end of the study using a high sensitivity assay (Elecsys Troponin T high sensitive STAT test, Roche Diagnostics, Switzerland, detection limit of 0.003 μg/L). The area under curve (AUC) of the plasma concentration of cardiac troponin T was determined using GraphPad Prism.
The systolic function of the LV was examined throughout the experiment without invasiveness using echocardiography (Vivid 4, probe 10.5 MHz, GE HeathCare) and invasively at the scheduled end of the experiment using LV catheterization (a Millar catheter 2.3 F, Millar Instruments, USA). In the echocardiography examination, the M-mode was used to determine the dimensions of the LV and the fractional shortening of the LV (LVFS) was calculated as an index of systolic function as described previously[46]. Similarly, from the change in LV pressures determined by catheterization of the LV, dP/dtmax was calculated as an index of systolic function as previously described[47]. Statistical significance was determined using one way ANOVA followed by the Holm–Sidak post hoc test or Kruskal–Wallis ANOVA on ranks followed by Dunn’s post hoc test according to the data distribution.
During necropsy, heart was rapidly excised, washed in cold saline and LV free wall was snap frozen in liquid nitrogen. After homogenization in liquid nitrogen, aliquots (aprox. 50 mg) were stored at -80 °C and used for PCR analysis of molecular markers of cardiotoxicity. Total RNA was isolated from rabbit LV myocardium using TRIzol reagent (Sigma-Aldrich). After reverse transcription using a High-Capacity cDNA Reverse Transcription Kit, qPCR was performed with TaqMan Fast Universal PCR Master Mix on QuantStudio 7 Flex Real-Time PCR System (all from Applied Biosystems, Foster City). […] Mean threshold cycle values were transformed into relative expression using the Pfaffl method. Commercial gene expression assays were obtained from Applied Biosystems and Generi Biotech (Hradec Králové, Czech Republic). The expression data were normalized by Hprt1 expression. Statistical significance was determined using one way ANOVA followed by the Holm–Sidak post hoc test or Kruskal–Wallis ANOVA on ranks followed by Dunn’s post hoc test according to the data distribution.

caspase 3/7 = assay: Caspase 3/7 activity in NVCM (Caspase-Glo); type: cell-based, rat; settings: for Csp3/7 activity: independent replicates
Experimental: Caspase activity was assessed on NVCM cells using luciferase-based kits for caspase 3/7, 8 and 9 (Caspase-Glo® 3/7, 8 and 9 assay systems; Promega) according to the manufacturer’s instructions on 384-well plates (Greiner Bio-One). Luminescence signal was measured using Tecan M200 multifunctional plate-reader. All measured groups were corrected for total protein concentration (BCA assay) and were expressed as fold change of the signal over corresponding untreated control group. Each presented data point was obtained from distinct sample. Statistical significance was determined using ratio paired t-test, two-tailed.

HL-60 cell line = assay: Antiproliferative activity and interference with DAU (MTT), HL-60; type: cell-based, human; settings: for HL-60 proliferation (MTT), mean of independent replicates: Suppl.Fig.8c
Experimental: Antiproliferative effects of studied compounds alone or in combination with DAU were assayed, as described previously, using HL-60 cell line (ATCC® Catalog Number: CCL-240TM, lot 5036502; American Type Culture Collection, Manassas, VA) derived from a patient with acute promyelocytic leukaemia. The cells were cultured in RPMI-1640 medium supplemented with 10% FBS, 50 U/mL penicillin, and 50 μg/mL streptomycin solution at 37 °C in a humidified atmosphere of 5% CO2. For the experiments, cells were seeded on 96-well plates (TPP, Switzerland) at a density of 10,000 cells per well ([…]). […] Proliferation was assessed by the MTT assay. Briefly, 25 µL of 3 mg/mL MTT solution (3(4,5-dimethyl-2-thiazolyl)-2,5-diphenyl-2H-tetrazolium bromide) in PBS was added to each well, and after 2 h of incubation at 37 °C the cells were lysed with lysis buffer (isopropanol, 0.1 M HCl, 5% Triton X-100) for 30 minutes at RT. After the formazan was dissolved, the absorbance of the samples was measured at 570 nm and a reference wavelength at 690 nm (the 690 nm background absorbance was subtracted from the 570 nm values). Data are expressed as mean ± SD from four independent experiments. Normalized values were plotted as a function of inhibitor concentration to determine IC50 values using Prism 9 (GraphPad). Statistical significance was evaluated by ANOVA with the Holm-Sidak post hoc test (P ≤ 0.05, marked as significant difference against control (c) or DAU (d)).

[1] = Topobexin alone, individual animals
[2] = Topobexin+DAU, individual animals

CCCc1cc(=O)oc2c(C(=O)N3CCCc4ccccc43)c(OC)cc(OC)c12 [BNS-22]
IC50 (TOP2B C88Y): 1550 nM
effect of C88Y mutation in TOP2B on inhibition (TOP2B C88Y): did not alter inhibition

COc1cccc2c1C(=O)c1c(O)c3c(c(O)c1C2=O)C[C@@](O)(C(C)=O)C[C@@H]3O[C@H]1C[C@H](N)[C@H](O)[C@H](C)O1 [DAU, daunorubicin, reference compound]
premature death (rabbits; DAU 3 mg/kg weekly, 10 weeks): one premature death
Body weight gain (rabbits; DAU alone, individual animals): 111.6 and 102.0 and 134.7 and 116.1 and 99.5 and 98.2 and 106.3 and 117.5 and 112.5 and 97.6 and 92.2
Brain natriuretic peptide mRNA, LV myocardium (rabbits; DAU alone, individual animals): 3.43 and 7.71 and 11.23 and 1.53 and 3.70 and 14.27 and 5.99 and 15.03 and 2.12 and 2.78
Collagen I alpha 1 mRNA (rabbits; DAU alone, individual animals): 1.89 and 3.79 and 5.05 and 1.80 and 2.15 and 7.04 and 4.33 and 8.95 and 1.98 and 2.03
Fibronectin 1 mRNA (rabbits; DAU alone, individual animals): 2.75 and 11.42 and 16.69 and 2.86 and 6.76 and 33.96 and 11.80 and 25.41 and 3.99 and 2.01
LV FS (LMV) (rabbits; DAU alone, individual animals): 35.5 and 28.3 and 21.8 and 37.5 and 22.5 and 33.0 and 26.0 and 35.8
LV dP/dtmax (rabbits; DAU alone, individual animals): 4037 and 6946 and 6956 and 5174 and 3773 and 6731 and 5382 and 6442
Δ LV FS (LMV) (rabbits; DAU alone, individual animals): -7.5 and -6.8 and -15.3 and -22.3 and -4.5 and -6.0 and -18.5 and -9.0 and -16.5 and -17.5 and -9.2
Csp3/7 activity, mean (caspase 3/7; DAU 1.2 μM alone): 3.236 fold change
Csp3/7 activity (caspase 3/7; DAU 1.2 μM alone): 2.392 fold change and 2.445 fold change and 4.746 fold change and 2.53 fold change and 4.167 fold change and 3.136 fold change
HL-60 proliferation (MTT), mean of independent replicates (HL-60 cell line; DAU 1.2 µM alone): 35.1587

CCCc1cc(=O)oc2c(C(=O)N3CCCc4ccccc43)c(OCCN3CCN(C)CC3)ccc12 [topobexin (9)]
Body weight gain (rabbits; [1]): 141.3 and 136.4 and 124.5 and 123.7 and 134.0 and 143.6 and 132.0
Brain natriuretic peptide mRNA, LV myocardium (rabbits; [1]): 3.72 and 0.42 and 0.55 and 0.81 and 0.90 and 0.28 and 2.33
Collagen I alpha 1 mRNA (rabbits; [1]): 1.54 and 1.27 and 0.81 and 0.88 and 1.14 and 1.41 and 1.19
Fibronectin 1 mRNA (rabbits; [1]): 1.41 and 1.30 and 1.55 and 1.58 and 1.78
LV FS (LMV) (rabbits; [1]): 42.0 and 40.5 and 42.5 and 43.5 and 39.0 and 43.0
LV dP/dtmax (rabbits; [1]): 7750 and 7165 and 9815 and 8309 and 8311 and 8034 and 7362
Δ LV FS (LMV) (rabbits; [1]): 1.0 and -1.5 and 2.0 and -1.0 and -2.5
Body weight gain (rabbits; [2]): 104.9 and 134.7 and 121.0 and 128.3 and 113.2 and 106.8 and 114.9 and 101.0 and 104.7
Brain natriuretic peptide mRNA, LV myocardium (rabbits; [2]): 1.55 and 3.15 and 0.69 and 1.65 and 1.04 and 0.65 and 5.19 and 1.00 and 2.01 and 1.22 and 0.48
Collagen I alpha 1 mRNA (rabbits; [2]): 0.77 and 1.31 and 1.34 and 2.10 and 1.65 and 1.81 and 2.59 and 0.95 and 1.66 and 0.86 and 1.09
Fibronectin 1 mRNA (rabbits; [2]): 0.87 and 1.85 and 1.50 and 1.99 and 1.56 and 2.18 and 3.87 and 1.34 and 1.94 and 1.25 and 1.18
LV FS (LMV) (rabbits; [2]): 42.0 and 43.5 and 39.3 and 42.3 and 44.0 and 42.8 and 40.0 and 41.0 and 43.8
LV dP/dtmax (rabbits; [2]): 8562 and 8147 and 6788 and 7928 and 8340 and 7337 and 7402 and 8558 and 8112 and 8066 and 7973
Δ LV FS (LMV) (rabbits; [2]): -1.5 and 3.0 and -2.3 and 0.5 and 4.0 and -0.3 and -4.0 and -1.0 and 0.0 and 2.3 and 2.0
tolerability (rabbits; alone or with DAU, weekly for 10 weeks): well tolerated
Body weight gain (rabbits; topobexin + DAU): matched the DAU group
LV expression of BNP (rabbits; topobexin + DAU): prevented by co-administration of topobexin (9)
LV systolic function (echocardiography) (rabbits; topobexin + DAU): effectively prevented the DAU-induced decrease in LV systolic function
cardiomyocyte damage, plasma cTnT (rabbits; topobexin + DAU): effectively prevented by topobexin (9)
survival (rabbits; topobexin + DAU): survived until the scheduled end of the experiment
Body weight gain (rabbits; topobexin alone): did not differ from the control group
Csp3/7 activity, mean (caspase 3/7; Cmpd 9 10 μM + DAU 1.2 μM): 1.924 fold change
Csp3/7 activity (caspase 3/7; Cmpd 9 10 μM + DAU 1.2 μM): 1.455 fold change and 1.638 fold change and 2.77 fold change and 1.323 fold change and 2.6893 fold change and 1.665 fold change
Csp3/7 activity, mean (caspase 3/7; Cmpd 9 10 μM alone): 0.9751 fold change
Csp3/7 activity (caspase 3/7; Cmpd 9 10 μM alone): 1.249 fold change and 1.002 fold change and 1.008 fold change and 0.6241 fold change and 0.959 fold change and 1.009 fold change
DAU-induced apoptotic signaling by caspases 3/7, 8, and 9 (caspase 3/7; NVCM): reduces DAU-induced apoptotic signaling
IC50 (TOP2B C88Y): 1880 nM
remaining activity at 0.0625 µM (TOP2B C88Y; 0.0625 μM, independent replicates, normalized to 0 drug): 98.2%
remaining activity at 0.125 µM (TOP2B C88Y; 0.125 μM, independent replicates, normalized to 0 drug): 97.9%
remaining activity at 0.25 µM (TOP2B C88Y; 0.25 μM, independent replicates, normalized to 0 drug): 95.9%
remaining activity at 0.5 µM (TOP2B C88Y; 0.5 μM, independent replicates, normalized to 0 drug): 84.7%
remaining activity at 1 µM (TOP2B C88Y; 1 μM, independent replicates, normalized to 0 drug): 69.3%
remaining activity at 2 µM (TOP2B C88Y; 2 μM, independent replicates, normalized to 0 drug): 43.5%
remaining activity at 4 µM (TOP2B C88Y; 4 μM, independent replicates, normalized to 0 drug): 18.5%
remaining activity at 8 µM (TOP2B C88Y; 8 μM, independent replicates, normalized to 0 drug): 6.37%
effect of C88Y mutation in TOP2B on inhibition (TOP2B C88Y): conferred significant resistance to inhibition
effect on antiproliferative effects of DAU (HL-60 cell line; HL-60, any concentration tested): did not decrease the antiproliferative effects of DAU
HL-60 proliferation (MTT), mean of independent replicates (HL-60 cell line; compound 0.01 µM + DAU 1.2 µM): 39.4171
HL-60 proliferation (MTT), mean of independent replicates (HL-60 cell line; compound 0.1 µM + DAU 1.2 µM): 37.298
HL-60 proliferation (MTT), mean of independent replicates (HL-60 cell line; compound 1 µM + DAU 1.2 µM): 37.3478
HL-60 proliferation (MTT), mean of independent replicates (HL-60 cell line; compound 10 µM + DAU 1.2 µM): 18.3679
HL-60 proliferation (MTT), mean of independent replicates (HL-60 cell line; compound 30 µM + DAU 1.2 µM): 13.5189
HL-60 proliferation (MTT), mean of independent replicates (HL-60 cell line; compound 100 µM + DAU 1.2 µM): 1.772
HL-60 proliferation (MTT), mean of independent replicates (HL-60 cell line; compound alone 0.01 µM): 99.5782
HL-60 proliferation (MTT), mean of independent replicates (HL-60 cell line; compound alone 0.1 µM): 97.2193
HL-60 proliferation (MTT), mean of independent replicates (HL-60 cell line; compound alone 1 µM): 91.5968
HL-60 proliferation (MTT), mean of independent replicates (HL-60 cell line; compound alone 10 µM): 13.6521
HL-60 proliferation (MTT), mean of independent replicates (HL-60 cell line; compound alone 30 µM): 12.3063
HL-60 proliferation (MTT), mean of independent replicates (HL-60 cell line; compound alone 100 µM): 1.671

Source: paper PMC12116762, “Topobexin targets the Topoisomerase II ATPase domain for beta isoform-selective inhibition and anthracycline cardioprotection” (Nature Communications, 2025)
